In patent US20060116390A1, “Hepatitis c virus inhibitors” (priority 2003, published 2006):
Read-outs that look alike come from different tables or passages of the source.

Test system: HCV proteins in Rep5.1 cells (replicon cell line)
Test: Inhibitory activity of HCV: cell-based ELISA in replicon cell line Rep5.1 (decrease of HCV proteins)
Design: species or system hepatitis C virus
Conditions: Rep5.1 cells, 72 hours with drug
Summary of the method: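 HCV protein loss was quantified by ELISA on methanol/acetone-fixed cells 72 h after drug addition, probing with selected HCV-positive human plasma, and IC50 was defined as 50% reduction relative to untreated wells. The cells were Rep5.1 replicon cells cultured in DMEM-10 with 500 μg/ml G418, plated at 5000 per well and dosed with serial dilutions after 4 h attachment.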

[1] = concentration at which 50% of HCV proteins was decreased, Table 2, read-out: IC50
[2] = Hepatitis C virus, 72 h, concentration at which 50% of HCV proteins was decreased, Table 2, read-out: IC50
[3] = Hepatitis C virus, 72 h, decrease of HCV proteins measured by HCV antibody, Table 1, read-out: Level (IC50 values classified)

Row | SMILES | IC50 [1] [nM] | IC50 [2] [nM] | IC50 [3] [nM]
1 | COc1ccc(Cl)cc1COC(=O)C1=C(C)NC(=S)NC1CF (centres unmarked) [81′, 4-fluoromethyl-6-methyl-2-thioxo-1,2,3,4-tetrahydro-pyrimidine-5-carboxylic acid 5-chloro-2-methoxy-benzyl ester] | 2400 |  | 
2 | CC1=C(C(=O)OCCc2ccc(Cl)cc2)CNC(=S)N1 [Compound 94, 6-methyl-2-thioxo-1,2,3,4-tetrahydro-pyrimidine-5-carboxylic acid 2-(4-chloro-phenyl)-ethyl ester] |  | < 400 | < 1000
3 | CC1=C(C(=O)OCC=Cc2ccsc2)CNC(=S)N1 [Compound 244, 6-methyl-2-thioxo-1,2,3,4-tetrahydro-pyrimidine-5-carboxylic acid 3-thiophen-3-yl-allyl ester] |  | 500 | < 1000
4 | CC1=C(C(=O)OCCc2ccsc2)C(C(F)(F)F)NC(=S)N1 (centres unmarked) [8′, 6-methyl-2-thioxo-4-trifluoromethyl-1,2,3,4-tetrahydro-pyrimidine-5-carboxylic acid 2-thiophen-3-yl-ethyl ester] |  | 21000 | > 20000
5 | O=C(OCCCc1cccs1)C1=CNC(=S)NC1CF (centres unmarked) [16′, 4-fluoromethyl-2-thioxo-1,2,3,4-tetrahydro-pyrimidine-5-carboxylic acid 3-thiophen-2-yl-propyl ester] |  | 2000 | 1000 to 10000
6 | CCN(CC)c1ccc(CCOC(=O)C2=C(C)NC(=S)NC2CO)cc1[N+](=O)[O-] (centres unmarked) [91″, 4-Hydroxymethyl-6-methyl-2-thioxo-1,2,3,4-tetrahydro-pyrimidine-5-carboxylic acid 2-(4-diethylamino-3-nitro-phenyl)-ethyl ester] |  | 700 | < 1000
7 | CC1=C(C(=O)OCc2ccc(O)cc2)CNC(=S)N1 [Compound 229, 6-methyl-2-thioxo-1,2,3,4-tetrahydro-pyrimidine-5-carboxylic acid 4-hydroxy-benzyl ester] |  | > 100000 | > 20000
8 | C#CC(C)OCC#CCOC(=O)C1=C(C)NC(=S)NC1 (centres unmarked) [Compound 246, 6-methyl-2-thioxo-1,2,3,4-tetrahydro-pyrimidine-5-carboxylic acid 4-(1-methyl-prop-2-inyloxy)-but-2-inyl ester] | 68000 |  | 
9 | CC1=C(C(=O)OC(c2ccccc2)c2ccccc2C)CNC(=S)N1 (centres unmarked) [Compound 57, 6-methyl-2-thioxo-1,2,3,4-tetrahydro-pyrimidine-5-carboxylic acid phenyl-o-tolyl-methyl ester] |  | 3500 | 1000 to 10000
10 | CC1=C(C(=O)SCc2ccco2)C(CF)NC(=S)N1 (centres unmarked) [39′, 4-fluoromethyl-6-methyl-2-thioxo-1,2,3,4-tetrahydro-pyrimidine-5-carbothioic acid S-furan-2-ylmethyl ester] |  | 2600 | 1000 to 10000
11 | CC1=C(C(=O)OCCc2ccsc2Br)CNC(=S)N1 [Compound 247, 6-methyl-2-thioxo-1,2,3,4-tetrahydro-pyrimidine-5-carboxylic acid 2-(2-bromo-thiophen-3-yl)-ethyl ester] |  | < 400 | < 1000
12 | CCOc1ccccc1CCOC(=O)C1=C(C)NC(=S)NC1CS(=O)(=O)C(C)(C)C (centres unmarked) [30″, 6-methyl-4-(2-methyl-propane-2-sulfonylmethyl)-2-thioxo-1,2,3,4-tetrahydro-pyrimidine-5-carboxylic acid 2-(2-ethoxy-phenyl)-ethyl ester] |  | 50000 | > 20000
13 | CC1=C(C(=O)OCc2nc3ccccc3o2)CNC(=S)N1 [Compound 238, 6-methyl-2-thioxo-1,2,3,4-tetrahydro-pyrimidine-5-carboxylic acid benzoxazol-2-ylmethyl ester] |  | 3000 | 1000 to 10000
14 | CC1=C(C(=O)OCCc2ccc(F)c(F)c2)C(CF)NC(=S)N1 (centres unmarked) [90′, 4-fluoromethyl-6-methyl-2-thioxo-1,2,3,4-tetrahydro-pyrimidine-5-carboxylic acid 2-(3,4-difluoro-phenyl)-ethyl ester] |  | 800 | < 1000
